Data reported in patent US12448383B2, “Compounds and methods for treatment of viral infections” (priority 2022, dated 2025).

Key:
[1] = CC50 MT4 cytotoxicity (Cell-Titer Glo); type: cell-based; conditions: human
Procedure, shortened: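 CC50 values are the concentrations cutting viability by 50%, fitted by non-linear regression against untreated (100%) and 2 μM puromycin (0%) controls. Cell-Titer Glo luminescence measured after 4-5 days at 37° C exposure of uninfected MT-4 and HEp-2 cells to 3-fold dilutions spanning 15 nM to 100,000 nM.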

[2] = Stability in pH2 buffered solution; type: physicochemical; conditions: pH2 phosphate buffer, 40° C.
Procedure, shortened: (§1)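 UPLC % area-normalized compound peak tracked over 24 hrs at 40° C. (0, 3, 6, 9, 12 and 24 hrs). Samples at 50 μg/mL, prepared from 1 mg/mL acetonitrile stock, in pH2 or pH7 50 mM phosphate/150 mM NaCl buffer.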

Plasma stability = type: in vitro ADME; set-up: unit not given here; conditions: 37° C., 2 μM substrate
Procedure, shortened: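 LC-MS (Q-Exactive, 5 ppm tolerance, 0.1% formic acid water/acetonitrile gradient) quantified compound in quenched aliquots. Aliquots were taken at 0.05, 0.5, 1, 2, 3 and 4 hr and quenched with internal-standard solution, and supernatants were diluted with water after centrifugation.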

[3] = test system: SARS Coronavirus 2 recombinant with NanoLuc (SARS-CoV2-NLuc) in A549-hACE2 cells; assay: organism not typed; type: cell-based; conditions: 48 h; read-out: SARS-CoV2 EC50
[4] = test system: Respiratory syncytial virus recombinant with luciferase (RSV-Luc5) in Normal Human Bronchial Epithelial (NHBE) cells; assay: microbe, parasite or virus in culture; type: cell-based; conditions: 72 h, read-out: RSV NHBE EC50
[5] = Thermodynamic solubility in pH7 buffered solution; conditions: 50 mM phosphate buffer pH7, 150 mM NaCl, ambient temperature, 24 hours
Procedure, shortened: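 Solid shaken 24 h at ambient temperature in 50 mM phosphate buffer pH7 with 150 mM NaCl. Supernatant diluted in 30:70 acetonitrile:water and quantified by UPLC-UV.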

[6] = Stability in pH7 buffered solution; type: physicochemical; conditions: pH7 phosphate buffer, 40° C., Table N2
Procedure, shortened: as §1

[7] = GI S9 stability - no PMSF; type: in vitro ADME; conditions: pH 7.4; human intestinal S9, PMSF-free; read-out: GIS9-HUMAN-NoPMSF T1/2
Procedure, shortened: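 Stability was assessed by Q-Exactive LC-MS peak area ratios against internal standard, tracking loss of parent and appearance of nucleoside metabolite Reference Compound A. Incubations used 2 μM compound in 1 mg/mL intestinal S9 without PMSF (PBS, pH 7.4), with six samples taken over 120 min.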

Structure (SMILES): CCOC(=O)OC[C@H]1O[C@@](C#N)(c2ccc3c(N)ncnn23)[C@H](OC(C)=O)[C@@H]1OC(C)=O [Compound 129, (2R,3R,4R,5R)-2-(4-aminopyrrolo[2,1-f][1,2,4]triazin-7-yl)-2-cyano-5-(((ethoxycarbonyl)oxy)methyl)tetrahydrofuran-3,4-diyl diacetate]
- CC50 [1]: > 50 µM
- Stability at pH2, 0 hr ([2]; 0 hr): 100.0 % AN
- Stability at pH2, 3 hr ([2]; 3 hr): 98.4 % AN
- Stability at pH2, 6 hr ([2]; 6 hr): 96.9 % AN
- Stability at pH2, 9 hr ([2]; 9 hr): 95.5 % AN
- Stability at pH2, 12 hr ([2]; 12 hr): 94.0 % AN
- pH 2 Stability 24 h % AN ([2]; 24 h, Table N2): 89 % AN
- Stability at pH2, 24 hr ([2]; 24 hr): 89.4 % AN
- STA Human Plasma 37 (Plasma stability): 3
- EC50 [3]: 5.83 µM
- EC50 [4]: 0.673 µM
- Sol pH 7 [5]: 0.72
- pH 7 Stability 24 h % AN [6]: 78 % AN
- half-life at 2 µM [7]: 37.4 s
